The record followed here is patent publication US9056874B2, “Complement pathway modulators and uses thereof” (NOVARTIS AG, priority 2012, dated 2015).

For the assay, the target named is factor B (Homo sapiens, UniProt P00751). As to the kind of experiment: factor B inhibition assay of Biological Example 1. The conditions noted are these: IC50 (nM), assay of Biological Example 1 (Table 1). Further details: CVF-Bb complex prepared from purified cobra venom factor (1 μM), recombinant human complement factor B; made in house; host or cells: drosophila cells (factor B); E. coli (factor D used to form the complex). In kind it is biochemical.

The structures appear in SMILES notation.

factor B, sequence (P00751 260-764 limits assumed): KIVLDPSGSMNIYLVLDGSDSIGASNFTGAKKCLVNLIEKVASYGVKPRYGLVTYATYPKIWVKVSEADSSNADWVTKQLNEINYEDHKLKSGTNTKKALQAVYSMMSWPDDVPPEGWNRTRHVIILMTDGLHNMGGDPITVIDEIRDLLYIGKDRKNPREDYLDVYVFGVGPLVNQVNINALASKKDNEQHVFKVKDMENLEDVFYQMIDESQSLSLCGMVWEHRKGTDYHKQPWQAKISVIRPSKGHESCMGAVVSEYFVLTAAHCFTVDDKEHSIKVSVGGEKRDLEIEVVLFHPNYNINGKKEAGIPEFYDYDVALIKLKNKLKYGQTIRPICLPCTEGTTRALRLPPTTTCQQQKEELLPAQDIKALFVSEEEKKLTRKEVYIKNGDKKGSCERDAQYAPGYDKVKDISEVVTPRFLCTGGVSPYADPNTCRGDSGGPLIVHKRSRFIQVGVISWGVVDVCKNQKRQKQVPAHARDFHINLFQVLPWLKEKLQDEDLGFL
factor B, sequence (Q91132 23-649 partner limits assumed): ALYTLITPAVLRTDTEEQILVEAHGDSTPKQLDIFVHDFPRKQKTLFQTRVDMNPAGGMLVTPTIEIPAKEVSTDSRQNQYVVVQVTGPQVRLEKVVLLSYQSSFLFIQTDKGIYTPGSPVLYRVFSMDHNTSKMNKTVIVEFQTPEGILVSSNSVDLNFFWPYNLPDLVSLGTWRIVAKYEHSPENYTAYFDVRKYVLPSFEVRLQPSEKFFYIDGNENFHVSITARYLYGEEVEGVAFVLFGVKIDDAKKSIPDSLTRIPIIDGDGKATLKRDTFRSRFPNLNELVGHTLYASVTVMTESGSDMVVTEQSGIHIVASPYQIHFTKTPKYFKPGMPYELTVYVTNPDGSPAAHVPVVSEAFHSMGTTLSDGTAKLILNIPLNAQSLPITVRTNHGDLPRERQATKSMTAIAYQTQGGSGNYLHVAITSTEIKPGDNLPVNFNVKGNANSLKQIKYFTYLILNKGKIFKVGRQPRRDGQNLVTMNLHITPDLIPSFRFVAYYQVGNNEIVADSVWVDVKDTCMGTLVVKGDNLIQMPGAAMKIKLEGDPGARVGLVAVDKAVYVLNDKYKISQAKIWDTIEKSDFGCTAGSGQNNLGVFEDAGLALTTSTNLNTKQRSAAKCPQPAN
factor B, sequence (Q91132 733-984 partner limits assumed): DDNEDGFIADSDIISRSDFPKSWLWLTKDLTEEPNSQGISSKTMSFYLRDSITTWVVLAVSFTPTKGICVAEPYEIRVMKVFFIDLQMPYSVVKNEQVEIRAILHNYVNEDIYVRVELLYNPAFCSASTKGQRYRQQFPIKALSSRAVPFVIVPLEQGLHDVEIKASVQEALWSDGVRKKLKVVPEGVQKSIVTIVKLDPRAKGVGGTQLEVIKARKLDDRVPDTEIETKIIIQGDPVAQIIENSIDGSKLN
factor B, sequence (Q91132 1264-1642 partner limits assumed): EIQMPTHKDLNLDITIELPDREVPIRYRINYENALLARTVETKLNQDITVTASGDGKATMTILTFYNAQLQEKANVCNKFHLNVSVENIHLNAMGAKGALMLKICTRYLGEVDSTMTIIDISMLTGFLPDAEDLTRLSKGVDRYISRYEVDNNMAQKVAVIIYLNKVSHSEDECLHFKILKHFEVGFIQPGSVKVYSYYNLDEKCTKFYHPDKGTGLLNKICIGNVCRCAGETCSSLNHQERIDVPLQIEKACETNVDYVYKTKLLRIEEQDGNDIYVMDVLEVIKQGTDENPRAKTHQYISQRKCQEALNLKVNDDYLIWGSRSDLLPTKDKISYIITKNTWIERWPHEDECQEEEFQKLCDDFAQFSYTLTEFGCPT

Regarding `COc1cc(C)c2[nH]ccc2c1C(O)(c1nc2cc(C#N)ccc2o1)C(F)(F)F` (single isomer, unassigned; (-)) [128-B b) (−), (−)-2-(2,2,2-trifluoro-1-hydroxy-1-(5-methoxy-7-methyl-1H-indol-4-yl)ethyl)benzo[d]oxazole-5-carbonitrile], the IC50 (commonly the concentration that inhibits the measured activity by half) was found to be 3 nM.
For `COc1cc(C)c2[nH]ccc2c1C(C)(N)c1nc2cc(C#N)ccc2o1` (single isomer, unassigned; (-)) [131-B b) (−), (−)-2-(1-amino-1-(5-methoxy-7-methyl-1H-indol-4-yl)ethyl)benzo[d]oxazole-5-carbonitrile], the IC50 came out at 52 nM.
On to `CCc1cc(C)c2[nH]cc(C#N)c2c1C(OC)c1nc2cc(C#N)ccc2[nH]1` (single isomer, unassigned; (-)) [Example 91, (−)-2-((3-Cyano-5-ethyl-7-methyl-1H-indol-4-yl)(methoxy)methyl)-1H-benzo[d]imidazole-5-carbonitrile], for which the IC50 came to 420 nM.
For the compound `Cc1cc(C)c2[nH]ccc2c1C(O)(c1nc2cc(C#N)ccc2[nH]1)C1CC1` (centres unmarked) [79-H a)], the half-maximal inhibitory concentration (IC50) is 110 nM.
Turning to `Cc1cc(C(C)C)c(C(C)(N)c2nc3cc(C#N)ccc3[nH]2)c2cc[nH]c12` (centres unmarked) [102-E a)], the IC50 worked out at 60 nM.
Take `COc1cc(C)c2[nH]ccc2c1Cc1nc2cc(C#N)ccc2[nH]1` [Example 20-C, 2-((5-Methoxy-7-methyl-1H-indol-4-yl)methyl)-1H-benzo[d]imidazole-5-carbonitrile]: the IC50 was 60 nM.
Under `[2H]C([2H])([2H])Oc1cc(C)c2[nH]ccc2c1Cc1nc2cc(C#N)ccc2[nH]1` [Example 20-D] stands 80 nM; under `Cc1cc(OC(C)C)c(Cc2nc3cc(C#N)ccc3[nH]2)c2cc[nH]c12` [Example 20-E], 670 nM.
Under `COCCOc1cc(C)c2[nH]ccc2c1Cc1nc2cc(C#N)ccc2[nH]1` [Example 20-F] stands 5570 nM.
Consider `COc1cc(C)c2[nH]ccc2c1Cc1nc2cc(C#N)ccc2o1` [Example 20-G], for which the IC50 came out at 120 nM.
On to `COc1cc(C)c2[nH]ccc2c1Cc1nc2ccc(C#N)cc2o1` [Example 20-H], for which the IC50 came out at 4370 nM.
For `COc1cc(F)c2[nH]ccc2c1Cc1nc2cc(C#N)ccc2[nH]1` [Example 21-B, 2-((7-Fluoro-5-methoxy-1H-indol-4-yl)methyl)-1H-benzo[d]imidazole-5-carbonitrile], the concentration for half-maximal inhibition (IC50) was 3140 nM.
`[2H]C([2H])([2H])Oc1cc(Cl)c2[nH]ccc2c1Cc1nc2cc(C#N)ccc2[nH]1` [Example 22, 2-((7-Chloro-5-(^2H3)methoxy-1H-indol-4-yl)methyl)-1H-benzo[d]imidazole-5-carbonitrile]: the IC50 is 1140 nM.
`[2H]C([2H])([2H])Oc1cc(Cl)c2[nH]ccc2c1C(O)c1nc2cc(C#N)ccc2[nH]1` (centres unmarked) [Example 24-E]: the IC50 is 1110 nM.
`COc1cc(C)c2[nH]ccc2c1C(=O)c1nc2cc(C#N)ccc2[nH]1` [Example 25-B, 2-(5-Methoxy-7-methyl-1H-indole-4-carbonyl)-1H-benzo[d]imidazole-5-carbonitrile]: the IC50 turned out to be 810 nM.
As for `COC(C)(c1nc2cc(C#N)ccc2[nH]1)c1c(OC(C)C)cc(C)c2[nH]ccc12` (centres unmarked) [Example 27-C], the half-maximal inhibitory concentration (IC50) stood at 90 nM.
On to `COc1cc(C)c2[nH]ccc2c1C(OC)(c1nc2cc(C#N)ccc2[nH]1)C1CC1` (centres unmarked) [Example 27-D], for which the IC50 was determined as 20 nM.
`Cc1cc(OC(C)C)c(C(O)(c2nc3cc(C#N)ccc3[nH]2)C(F)(F)F)c2cc[nH]c12` (centres unmarked) [Example 33-D]: the IC50 turned out to be 310 nM.
For `Cc1cc(C)c2[nH]ccc2c1Cc1nc2cc(C#N)ccc2[nH]1` [Example 58-C, 2-((5,7-Dimethyl-1H-indol-4-yl)methyl)-1H-benzo[d]imidazole-5-carbonitrile], the IC50 was found to be 200 nM.
In the case of `Cc1cc(CO)c(Cc2nc3cc(C#N)ccc3[nH]2)c2cc[nH]c12` [Example 59-C, 2-((5-(Hydroxymethyl)-7-methyl-1H-indol-4-yl)methyl)-1H-benzo[d]imidazole-5-carbonitrile] it was 1760 nM; in that of `Cc1cc(CN)c(Cc2nc3cc(C#N)ccc3[nH]2)c2cc[nH]c12` [Example 60-B, 2-((5-(Aminomethyl)-7-methyl-1H-indol-4-yl)methyl)-1H-benzo[d]imidazole-5-carbonitrile], 5780 nM.
`CC(=O)NCc1cc(C)c2[nH]ccc2c1Cc1nc2cc(C#N)ccc2[nH]1` [Example 61, N-((4-((5-cyano-1H-benzo[d]imidazol-2-yl)methyl)-7-methyl-1H-indol-5-yl)methyl)acetamide]: the half-maximal inhibitory concentration (IC50) came out at 6620 nM.
For `Cc1cc(C)c2[nH]ccc2c1Cc1nc2cc(C#N)cc(F)c2[nH]1` [Example 62-B, 2-((5,7-Dimethyl-1H-indol-4-yl)methyl)-7-fluoro-1H-benzo[d]imidazole-5-carbonitrile], the IC50 is 7610 nM.
As for `CCc1cc(C)c2[nH]ccc2c1Cc1nc2cc(C#N)ccc2[nH]1` [Example 63-A], the IC50 was determined as 160 nM.
As to `Cc1cc(Cl)c(Cc2nc3cc(C#N)ccc3[nH]2)c2cc[nH]c12` [Example 63-B], the IC50 is 260 nM.
Under `C=Cc1cc(C)c2[nH]ccc2c1Cc1nc2cc(C#N)ccc2[nH]1` [Example 63-C] stands 90 nM; under `COCc1cc(C)c2[nH]ccc2c1Cc1nc2cc(C#N)ccc2[nH]1` [Example 63-D], 1100 nM.
Regarding `Cc1cc(C)c2[nH]ccc2c1Cc1nc2c(C)c(C#N)ccc2[nH]1` [Example 63-E], the IC50 worked out at 320 nM.
In the case of `Cc1cc(C)c2[nH]ccc2c1Cc1nc2cc(C#N)cc(C)c2[nH]1` [Example 63-F] it was > 100000 nM.
With `Cc1cc(C)c2[nH]ccc2c1Cc1nc2cc(C#N)c(F)cc2[nH]1` [Example 63-G], the 50% inhibitory concentration (IC50) turned out to be 5550 nM.
Under `Cc1cc(C)c2[nH]ccc2c1Cc1nc2cc(C#N)c(Cl)cc2[nH]1` [Example 63-I] stands 72600 nM; under `COc1cc2[nH]c(Cc3c(C)cc(C)c4[nH]ccc34)nc2cc1C#N` [Example 63-J], 83200 nM.
Turning to `Cc1cc(C2CC2)c(C(O)c2nc3cc(C#N)ccc3[nH]2)c2cc[nH]c12` (centres unmarked) [Example 67-B], the IC50 turned out to be 260 nM.
Under `Cc1cc(Br)c(C(O)c2nc3cc(C#N)ccc3[nH]2)c2cc[nH]c12` (centres unmarked) [Example 67-F] stands 2000 nM.
Regarding `Cc1cc(C2CC2)c(C(O)c2nc3cc(C#N)c(F)cc3[nH]2)c2cc[nH]c12` (centres unmarked) [Example 67-H], the IC50 turned out to be 1930 nM.
Under `CCc1cc(C)c2[nH]ccc2c1C(=O)c1nc2cc(C#N)ccc2[nH]1` [Example 78, 2-(5-Ethyl-7-methyl-1H-indole-4-carbonyl)-1H-benzo[d]imidazole-5-carbonitrile] stands 640 nM; under `CCC(O)(c1nc2cc(C#N)ccc2[nH]1)c1c(C)cc(C)c2[nH]ccc12` (centres unmarked) [Example 79-G], 190 nM; under `Cc1cc(C)c2[nH]ccc2c1C(O)(c1ccccc1)c1nc2cc(C#N)ccc2[nH]1` (centres unmarked) [Example 79-I], 660 nM.
`Cc1cc(C)c2[nH]cc(Br)c2c1Cc1nc2cc(C#N)ccc2[nH]1` [Example 85, 2-((3-bromo-5,7-dimethyl-1H-indol-4-yl)methyl)-1H-benzo[d]imidazole-5-carbonitrile]: the IC50 is 220 nM.
In the case of `Cc1cc(C)c2[nH]cc(Cl)c2c1Cc1nc2cc(C#N)ccc2[nH]1` [Example 86, 2-((3-Chloro-5,7-dimethyl-1H-indol-4-yl)methyl)-1H-benzo[d]imidazole-5-carbonitrile], the IC50 worked out at 270 nM.
Regarding `CCc1cc(C)c2[nH]cc(C#N)c2c1Cc1nc2cc(C#N)ccc2[nH]1` [Example 90, 2-((3-Cyano-5-ethyl-7-methyl-1H-indol-4-yl)methyl)-1H-benzo[d]imidazole-5-carbonitrile], the IC50 worked out at 110 nM.
For the compound `Cc1cc(Cl)c2[nH]ccc2c1Cc1nc2cc(C#N)ccc2[nH]1` [Example 110-K, 2-((7-Chloro-5-methyl-1H-indol-4-yl)methyl)-1H-benzo[d]imidazole-5-carbonitrile], the IC50 worked out at 3330 nM.
Consider `CCc1cc(C)c(Cc2nc3cc(C#N)ccc3[nH]2)c2cc[nH]c12` [Example 111-E, 2-((7-Ethyl-5-methyl-1H-indol-4-yl)methyl)-1H-benzo[d]imidazole-5-carbonitrile], for which the IC50 was determined as 22900 nM.
On to `Cc1cc(Br)c2[nH]ccc2c1Cc1nc2cc(C#N)ccc2[nH]1` [Example 112-E, 2-((7-Bromo-5-methyl-1H-indol-4-yl)methyl)-1H-benzo[d]imidazole-5-carbonitrile], for which the IC50 amounted to 4150 nM.
On to `Cc1cc(CO)c2[nH]ccc2c1Cc1nc2cc(C#N)ccc2[nH]1` [Example 113-F, 2-((7-(Hydroxymethyl)-5-methyl-1H-indol-4-yl)methyl)-1H-benzo[d]imidazole-5-carbonitrile], for which the IC50 was 9600 nM.
Regarding `C=C(c1nc2cc(C#N)ccc2[nH]1)c1c(CC)cc(C)c2[nH]ccc12` [Example 114-C, 2-(1-(5-Ethyl-7-methyl-1H-indol-4-yl)vinyl)-1H-benzo[d]imidazole-5-carbonitrile], the IC50 was 70 nM.
Under `C=C(c1nc2cc(C#N)ccc2[nH]1)c1c(OC)cc(C)c2[nH]ccc12` [Example 115, 2-(1-(5-Methoxy-7-methyl-1H-indol-4-yl)vinyl)-1H-benzo[d]imidazole-5-carbonitrile] stands 30 nM; under `CCc1cc(C)c2[nH]cc(-c3ccn[nH]3)c2c1Cc1nc2cc(C#N)ccc2[nH]1` [Example 116-F, 2-((5-Ethyl-7-methyl-3-(1H-pyrazol-5-yl)-1H-indol-4-yl)methyl)-1H-benzo[d]imidazole-5-carbonitrile], 190 nM.
In the case of `COc1cc(C)c2[nH]ccc2c1C(C)(C)c1nc2cc(C#N)ccc2[nH]1` [Example 122-C, 2-(2-(5-Methoxy-7-methyl-1H-indol-4-yl)propan-2-yl)-1H-benzo[d]imidazole-5-carbonitrile], the IC50 turned out to be 5 nM.
In the case of `Cc1cc(C)c2c(c1Cc1nc3cc(C#N)ccc3[nH]1)CCN2` [Example 123, 2-((5,7-Dimethylindolin-4-yl)methyl)-1H-benzo[d]imidazole-5-carbonitrile] it was 920 nM.
